From patent US7384758B2, “Bioluminescent protease assay with modified aminoluciferin or derivatives thereof” (Promeaga Corporation, priority 2002, dated 2008)

Legend:
[1] = tested on: thermostable firefly luciferase; assay: luminescent reaction with luciferin or aminoluciferin as luciferase substrate (FIG. 1); assay type: biochemical
Excerpt: FIG. 1 depicts relative light units (RLU) for luciferin or aminoluciferin as a substrate for a thermostable firefly luciferase in a luminescent reaction.

[2] = target: T1, caspase 3 (Homo sapiens, UniProt P42574); assay: caspase titration in CHAPS or Thesit buffer formulations (Example 5); assay type: biochemical; conditions: buffer containing either CHAPS or Thesit, FIG. 12
T1 construct: approximately 10 mU/ng protein with >75% in active conformation; purchased Upstate Biotech 14-264
T1 sequence (P42574 29-175 limits assumed): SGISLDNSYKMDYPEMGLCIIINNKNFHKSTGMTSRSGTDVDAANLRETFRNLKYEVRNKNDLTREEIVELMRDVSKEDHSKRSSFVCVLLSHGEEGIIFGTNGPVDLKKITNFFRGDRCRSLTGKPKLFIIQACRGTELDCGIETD
T1 sequence (P42574 176-277 limits assumed): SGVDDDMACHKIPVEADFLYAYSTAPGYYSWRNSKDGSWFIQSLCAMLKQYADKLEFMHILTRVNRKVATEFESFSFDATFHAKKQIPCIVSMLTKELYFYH
Method: To evaluate different assay component formulations for caspase-3 activity and to compare sensitivities of DEVD-aminoluciferin to DEVD-Rho-110 in those formulations, two stock solutions were prepared. As above, the DEVD-aminoluciferin/luciferase mixture is prepared and allowed to incubate overnight. One stock solution included a 1% solution of CHAPS buffer (Sigma, Catalog No. C-5070) and the other a 1% solution of Thesit (Pragmatics, Inc., Catalog No. S-22#9). The buffer formulations were as follows: 100 μl of HEPES (1 M stock, 50 mM final concentration), 10 μl of CaCl2 (1 M stock, 5 mM final concentration), 30 μl of MgSO4 (1 M stock, 15 mM final concentration), 8 μl of ATP (0.1 M stock, 400 μM final concentration), 8 μl of DEVD-aminoluciferin (10 mM stock, 40 μM final concentration), 38.4 μl of luciferase (5.2 mg/ml stock, 100 μg/ml final concentration) and 20 μl of prionex (10% stock, 0.1% final concentration) were combined in each of 2 tubes. Finally, 200 μl of either CHAPS or Thesit (1% stock, 0.1% final concentration) was added to one of the tubes. This was incubated overnight. […]
To one plate, 50 μl of DEVD-aminoluciferin/luciferase was added to each of the 6 wells containing each dilution (both CHAPS and Thesit treated). […] The plates were read at various times on a luminometer (Dynex) or a fluorimeter (Fluoroskan).

Km ([1]; substrate for thermostable firefly luciferase, FIG. 1): 2000 nM
light output as luciferin ([1]; under saturating conditions, relative to luciferin): about 60%
limit of detection (caspase) [2]: ~0.2 μU
SMILES: Nc1ccc2nc(C3=N[C@@H](C(=O)O)CS3)sc2c1 [aminoluciferin]
